# Read-outs that look alike come from different tables or passages of the source.
# What was measured:
# Format in all cases: in vivo
# [1] = tested on: purple deadnettle (Lamium purpureum L; LAMPU); assay: Postemergence herbicidal activity, greenhouse, visual injury: purple deadnettle; conditions: Lamium purpureum, post-emergence, 480 h, read-out: LAMPU Ob (visual injury)
# Protocol: (§1) Evaluation of Postemergence Herbicidal Safening in Cereal Crops
# (§2) Seeds of the desired test plant species were planted in Sun Gro MetroMix® 306 planting mixture, which typically has a pH of 6.0 to 6.8 and an organic matter content of about 30 percent, in plastic pots with a surface area of 103.2 square centimeters (cm^2). When required to ensure good germination and healthy plants, a fungicide treatment and/or other chemical or physical treatment was applied. The plants were grown for 7-36 days (d) in a greenhouse with an approximate 14-hour (h) photoperiod which was maintained at about 18° C. during the day and 17° C. during the night. Nutrients and water were added on a regular basis and supplemental lighting was provided with overhead metal halide 1000-Watt lamps as necessary. The plants were employed for testing when they reached the second or third true leaf stage.
# (§3) Treatments consisted of the acids or esters of compounds 1-10 and cloquintocet-mexyl (CQC-M), fenchlorazole-ethyl, mefenpyr-diethyl alone and in combination. Weighed amounts of acid or methyl esters of the compounds of formula (I) were dissolved in a volume of 97:3 v/v acetone/dimethylsulfoxide (DMSO) to obtain concentrated solutions. […] The concentrated solutions of the test compound were diluted with the addition of an aqueous mixture containing acetone, water, isopropyl alcohol, DMSO, Agri-Dex crop oil concentrate, and Triton® X-77 surfactant in a 64.7:26.0:6.7:2.0:0.7:0.01 v/v ratio. Test compounds were diluted to the appropriate application rate with a dilution solution which was prepared by mixing the appropriate volume of 97:3 v/v acetone/DMSO and the appropriate volume of an aqueous mixture containing acetone, water, isopropyl alcohol, DMSO, Agri-Dex crop oil concentrate, and Triton® X-77 surfactant in a 64.7:26.0:6.7:2.0:0.7:0.01 v/v ratio. Compound requirements are based upon a 12 mL application volume at a rate of 187 liters per hectare (L/ha). The concentrated solutions of the safener were prepared following the same procedure. Weighed amounts of safener were dissolved in a volume of 97:3 v/v acetone/DMSO to obtain concentrated safener solutions.
# (§4) Spray solutions of the herbicide safener and test compound mixtures were prepared by adding the concentrated solutions to the appropriate amount of dilution solution to form 12 mL spray solution with active ingredients in combinations.
# (§5) Formulated compounds were applied to the plant material with an overhead Mandel track sprayer equipped with 8002E nozzles calibrated to deliver 187 L/ha over an application area of 0.503 square meters (m^2) at a spray height of 18 inches (43 centimeters (cm)) above average plant canopy. Control plants were sprayed in the same manner with the solvent blank.
# (§6) The treated plants and control plants were placed in a greenhouse as described above and watered by sub-irrigation to prevent wash-off of the test compounds. After 20-22 d, the condition of the test plants as compared with that of the control plants was determined visually and scored on a scale of 0 to 100 percent where 0 corresponds to no injury and 100 corresponds to complete kill.
# (§7) Colby's equation was used to determine the herbicidal effects expected from the mixtures (Colby, S. R. Calculation of the synergistic and antagonistic response of herbicide combinations. Weeds 1967, 15, 20-22.).
# (§8) The following equation was used to calculate the expected activity of mixtures containing two active ingredients, A and B: Expected=A+B−(A×B/100)
# (§9) A=observed efficacy of active ingredient A at the same concentration as used in the mixture.
# (§10) B=observed efficacy of active ingredient B at the same concentration as used in the mixture.
# [2] = tested on: spring wheat (Triticum aestivum L; TRZAS); assay: Postemergence herbicidal safening in cereal crops, greenhouse, visual injury: spring wheat; conditions: Triticum aestivum, post-emergence, 480 h, read-out: TRZAS Ob (visual injury)
# Protocol: as §1, §2, §3, §4, §5, §6, §7, §8, §9, §10
# [3] = tested on: spring barley (Hordeum vulgare L; HORVS); assay: Postemergence herbicidal safening in cereal crops, greenhouse, visual injury: spring barley; conditions: Hordeum vulgare, post-emergence, 480 h, read-out: HORVS Ob (visual injury)
# Protocol: as §1, §2, §3, §4, §5, §6, §7, §8, §9, §10
# [4] = tested on: lamb's-quarters (Chenopodium album L; CHEAL); assay: Postemergence herbicidal activity, greenhouse, visual injury: lamb's-quarters; conditions: 20-22 d
# Protocol: as §1, §2, §3
# Spray solutions of the herbicide safener and test compound mixtures were prepared by adding the concentrated solutions to the appropriate amount of dilution solution to form 12 mL spray solution with active ingredients in combinations. […]
# as §6, with “kill. […]” for “kill.”
# [5] = tested on: kochia (Kochia scoparia L; KCHSC); assay: Postemergence herbicidal activity, greenhouse, visual injury: kochia; conditions: 20-22 d
# Protocol: as §1, §2, §3, §4, §5, §6, §7, §8, §9, §10
# [6] = tested on: corn poppy (Papaver rhoeas L; PAPRH); assay: Postemergence herbicidal activity, greenhouse, visual injury: corn poppy; conditions: 20-22 d
# Protocol: as §1, §2, §3, §4, §5, §6, §7, §8, §9, §10
# [7] = herbicide alone 70 g/ha, 20-22 d
# [8] = herbicide alone 140 g/ha, 20-22 d
# [9] = herbicide alone 35 g ae/ha, 20-22 d
# [10] = safener alone 140 g ae/ha, 20-22 d
SMILES,pest or weed control at 140 g/ha [1],pest or weed control at 140 g/ha [2],pest or weed control at 140 g/ha [3],CHEAL Ob (visual injury) ([4]; safener alone 140 g ae/ha),"pest or weed control at 70 g/ha [1, 7]","pest or weed control at 140 g/ha [1, 8]","pest or weed control at 35 g/ha [2, 9]","pest or weed control at 70 g/ha [2, 7]","pest or weed control at 140 g/ha [2, 8]","pest or weed control at 35 g/ha [3, 9]","pest or weed control at 70 g/ha [3, 7]","pest or weed control at 140 g/ha [3, 8]",CHEAL Ob (visual injury) ([4]; herbicide alone 35 g ae/ha),KCHSC Ob (visual injury) ([5]; herbicide alone 70 g/ha),KCHSC Ob (visual injury) ([5]; herbicide alone 140 g/ha),PAPRH Ob (visual injury) ([6]; herbicide alone 70 g/ha),PAPRH Ob (visual injury) ([6]; herbicide alone 140 g/ha),"pest or weed control at 140 g/ha [1, 10]","pest or weed control at 140 g/ha [2, 10]","pest or weed control at 140 g/ha [3, 10]"
"CCOC(=O)C1=NN(c2ccc(Cl)cc2Cl)C(C)(C(=O)OCC)C1 (stereo not drawn) [Mefenpyr-diethyl, mefenpyr-diethyl, reference compound]",0%,0%,0%,0%,,,,,,,,,,,,,,,,
"COc1c(N)nc(-c2ccc(C)cc2)nc1C(=O)O [Compound 6, 6-amino-2-p-tolyl-5-methoxypyrimidine-4-carboxylic acid]",,,,,75%,80%,35%,20%,55%,25%,20%,40%,83%,60%,70%,97%,100%,,,
"CCOC(=O)c1nc(C(Cl)(Cl)Cl)n(-c2ccc(Cl)cc2Cl)n1 [Fenchlorazole-ethyl, fenchlorazole-ethyl, reference compound]",,,,0%,,,,,,,,,,,,,,0%,0%,0%

# — patent US9408387B2, “Safening 6-amino-2-(substituted phenyl)-5-substituted-4-pyrimidinecarboxylate herbicide injury on cereal crops” (Dow AgroSciences LLC, priority 2009, dated 2016)
